Data set [1] has as its system Nc1ncnc2c1ncn2[C@@H]1O[C@H](CO)[C@@H](O)[C@H]1O. Briefly: cells, lysate or membranes. The conditions noted are these: other: mean ± SEM, n = 3; pH 7.3.
Data set [2] in a line: Cytotoxicity on MRC-5 fibroblasts (resazurin). Type of data set: cell-based, human. The conditions noted are these: human. As for the experimental part: Cytotoxicity assays were performed on MRC-5SV2 (Sigma-Aldrich/ECACC, catalogue number 84100401) human embryonic lung fibroblasts, which were cultured in minimum essential medium with Earle’s salt medium, supplemented with L-glutamine, NaHCO3 and 5% inactivated foetal calf serum. All cultures and assays were conducted at 37 °C with 5% CO2. Ten microliters of the aqueous compound dilutions were added to 190 µL of MRC-5SV2 (3 × 10^4 cells mL^−1). Cell growth was compared to untreated control wells (100% cell growth) and medium control wells (0% cell growth). After a 3-day incubation, cell viability was assessed fluorimetrically after the addition of 50 μL resazurin per well (final concentration of 10 µg mL^−1). After 4 h at 37 °C, fluorescence was measured (λex 550 nm, λem 590 nm). The results were expressed as percentage reduction in cell growth/viability compared to control wells and an EC50 was determined.

Details of data set [3]: method as in earlier work. The conditions noted are these: ref 36 (Olsen, D. B. et al.), cited from earlier work.
In data set [4] the test system is B48: pentamidine, diminazene and melaminophenyl arsenical resistant T. brucei line. Briefly: microbe, parasite or virus in culture. In kind it is cell-based, Trypanosoma brucei brucei. To be noted: for EC50: Trypanosoma brucei.
For data set [5], the system named is TbAT1-KO: T. brucei cell line lacking the TbAT1(P2) transporter gene. Briefly: microbe, parasite or virus in culture. Type of data set: cell-based, Trypanosoma brucei brucei. As for the experimental part: (§1) Drug susceptibility tests with Lister 427WT, TbAT1-KO[48], B48[26] and ISMR1[27] were performed using an assay based on the viability indicator dye resazurin in 96-well plates, each well containing 2 × 10^4 cells. The plates were incubated for 48 h with a doubling dilution series of the test compounds in HMI-9/fetal bovine serum at 37 °C/5% CO2 (23 dilutions starting at 100 µM, except for the pentamidine control (50 µM)), after which resazurin (20 µL of 125 µg mL^−1 resazurin sodium salt solution was added to each well (containing 200 µL of cells and test compound)) was added to each well and the plates incubated for another 24 h. Fluorescence was determined using a FLUOstar Optima (BMG Labtech, Durham, NC) and the results fitted to a sigmoid curve with variable slope using Prism 5.0 or Prism 7.04 (GraphPad, San Diego, CA).

Data set [6] concerns ISMR1: isometamidium-resistant T. brucei cell line. As to the kind of experiment: microbe, parasite or virus in culture. Type of data set: cell-based, Trypanosoma brucei brucei. On the procedure: as §1
In the next data set the test system is T. brucei Squib 427. As to the kind of experiment: microbe, parasite or virus in culture. Type of data set: cell-based, Trypanosoma brucei brucei. The conditions noted are these: for EC50: Trypanosoma brucei. On the procedure: as §1
(§2) Susceptibility assays with T. brucei Squib 427[49] or T. b. rhodesiense STIB-900[50] were performed under similar conditions as above, but using 10 concentrations of a 4-fold compound dilution series starting at 64 µM. Trypanosoma brucei Squib 427 was seeded at 1.5 × 10^4 parasites/well and T. b. rhodesiense at 4 × 10^3 parasites per well, followed by the addition of resazurin (final concentration of 10 µg mL^−1) after 24 h (T. brucei) or 6 h (T. b. rhodesiense).

Data set [7] concerns T. b. rhodesiense STIB-900. As to the kind of experiment: microbe, parasite or virus in culture. In kind it is cell-based, Trypanosoma brucei rhodesiense. As for the experimental part: as §1, §2
For data set [8], the target named is Lister 427WT T. b. brucei. As to the kind of experiment: Adenosine deaminase susceptibility (drug sensitivity with/without 2 µM deoxycoformycin). Type of data set: cell-based, Trypanosoma brucei brucei. The conditions noted are these: for EC50: Trypanosoma brucei, Lister 427WT, mean ± SEM, n=3. As for the experimental part:
as §1, with “CA). […]” for “CA).”
Adenosine deaminase susceptibility
in the presence or absence of 2 µM 2’-deoxycoformycin. […]

Data set [9] deals with T. b. brucei Lister 427WT. As to the kind of experiment: Drug susceptibility test (resazurin), Lister 427WT. Type of data set: cell-based, Trypanosoma brucei brucei. The conditions noted are these: Trypanosoma brucei. On the procedure:
as §1
Background: Alamar Blue is a resazurin reagent that responds to reducing activity.

Substrate in data set [10]: Nc1ncnc2c1ccn2[C@@H]1O[C@H](CO)C[C@H]1O
Briefly: ADKIN assay (phosphorylation by purified recombinant enzyme, HPLC). In kind it is biochemical, Trypanosoma brucei. To be noted: other: first phosphorylation step; mean and SE, n = 3; pH 7.5. On the procedure:
The T. brucei ADKIN enzyme was diluted in a buffer containing 0.05% (v/v) Tween-20, 50 mM KCl, 0.1 mM dithiothreitol, and 50 mM Tris-HCl, pH 7.5 (dilution buffer), prior to use in the assay. The final assay mixture contained 12.5 ng T. brucei ADKIN, a range between 50 and 1000 µM of nucleoside 9 (or 1000 µM deoxyadenosine in the control reaction), 100 mM KCl, 10 mM MgCl2, 0.5 mM ATP, 5 mM potassium phosphate and 50 mM Tris-HCl, pH 7.5. The assay was incubated at 37 °C for 30 min, and subsequently heated for 2 min at 100 °C to inactivate the enzyme, diluted with 2 volumes of water, centrifuged through a Nanosep 3k Omega filter and mixed 1:1:2 with water and mobile phase. The HPLC analysis was performed on a 2.1 × 150 mm ACE Excel C18 column using a mobile phase composition 4A:76B:20C (see nucleotide pool analysis, Supplementary Information for details). Using these conditions, consecutive samples could be loaded (Supplementary Fig. 12). After 4–5 samples, the column was washed with high percent A (80A:20C) to remove bound ADP and ATP before re-equilibrating the column to original conditions.

Values joined by “and” are separate entries in the source; they are usually repeats but may differ in a detail not shown here. Identical values can stand only once. Like-named read-outs stand apart in the source and are kept apart here. Marks after values point to notes of the source that are not given here.

As a reminder, the Km is the concentration of substrate that gives half-maximal velocity. On to “P2 transporter (TbAT1) (Trypanosoma brucei)”, for which the Michaelis-Menten constant (Km) in data set [1] came out at 0.53 ± 0.02 µM.
As usually defined, the EC50 is the concentration needed to bring the measured effect to its halfway point. Regarding `Nc1ncnc2c1ccn2[C@@H]1O[C@H](CO)[C@@H](O)[C@H]1O` [Compound 6, Tubercidin, reference compound], the EC50 at 3 day was 2200 ± 700 nM in [2] (cytotoxicity in human MRC-5 fibroblasts, mean and SEM, read-out: MRC-5 EC50); 2230 nM in [2] (source data, read-out: MRC-5 EC50, Average). Also, the “acute toxicity in mice” value in [3] (20 mg/kg over 14 days) was “tolerated with no visible signs of toxicity”; in [3] (50 mg/kg), “lethal”. Also, the “RF (B48)” value in data set [4] is listed as 28.7*. In addition, the EC50 is 4300 ± 1300 nM in [4] (mean and SEM, n = 3, read-out: B48 EC50); 4340 nM in data set [4] (source data, read-out: B48 EC50, AVG); 2610 ± 700 nM in data set [5] (Trypanosoma brucei, read-out: TbAT1-KO EC50, mean and SEM, n = 3); 3260 nM in data set [5] (Trypanosoma brucei, read-out: TbAT1-KO EC50, single determinations, source data); 1950 nM in [5] (read-out: TbAT1-KO EC50, single determinations, source data); 1700 ± 500 nM in [6] (Trypanosoma brucei, mean and SEM, n = 3, read-out: ISMR1 EC50). Also, the EC50 is 1670 nM in [6] (Trypanosoma brucei, source data, read-out: ISMR1 EC50, AVG); 2150 nM in [6] (Trypanosoma brucei, source data, read-out: ISMR1 EC50, single determinations); 1190 nM in [6] (source data, read-out: ISMR1 EC50, single determinations); 480 ± 100 nM in the data set with T. brucei Squib 427 (Alamar blue cell viability assay, mean and SEM, read-out: T. b. brucei EC50); 480 nM in the data set on T. brucei Squib 427 (source data, read-out: T. brucei brucei EC50, Average); 36 ± 1 nM in [7] (Trypanosoma brucei, RHODESIENSE, Alamar blue cell viability assay, mean and SEM, read-out: T. b. rhodesiense EC50). The EC50 in [7] (Trypanosoma brucei, RHODESIENSE, source data, read-out: T. brucei rhodesiense EC50, Average) was 36 nM; in data set [7] (Trypanosoma brucei, RHODESIENSE, source data, read-out: T. brucei rhodesiense EC50, single measurements) it was 35 nM; in data set [7] (source data, read-out: T. brucei rhodesiense EC50, single measurements), 33.2 nM and 39.9 nM; in data set [8] (absence of deoxycoformycin, read-out: T. b. brucei EC50, -Dcf), 220 ± 10 nM; in [8] (presence of 2 µM deoxycoformycin, read-out: T. b. brucei EC50, +Dcf) it was 310 ± 70 nM; in [9] (mean and SEM, n = 3, read-out: Lister 427 EC50), 150 ± 30 nM. Also, the EC50 in data set [9] (source data, read-out: s427 EC50, AVG) was found to be 151 nM. Moreover, the “RF (TbAT1-KO)” value in data set [5] (resistance factor: ratio of EC50 of resistant and Lister 427WT) is 17.2**. The “RF (ISMR1)” value in data set [6] (resistance factor vs Lister 427WT) is 11.1**. Besides, the “SI (MRC/T.b. brucei)” value with T. brucei Squib 427 is 4. Also, the “SI (MRC/T.b. rhodesiense)” value in [7] is on record as 61. For the same molecule, in data set [8], the “effect of adenosine deaminase inhibition (2’-deoxycoformycin) on EC50” value is “not significantly affected”.

B1: T. brucei ADKIN (Trypanosoma brucei brucei TREU927) (protein)
chain: MSSAPLRVYVQCNPLLDVSAHVSDEFLVKYGLERGTAILLSERQKGIFDDIEKMPNVRYVPGGSGLNVARVAQWMQQAYKGKFVTYVGCIADDRYGKVLKEAAEHEGIVMAVEHTTKAGSGACAVCITGKERTLVADLGAANHLSSEHMRSPAVVRAMDESRIFYFSGFTLTVDVNHVLQACRKAREVDGLFMINLSAPFIMQFFSAQLGEVLPYTDIIVANRHEAKEFANMMKWDTDCVEEIARRAVSEVPYTGTKGRVVVFTRDIEPTVIATKDGVETVPVPQLDQDKVIDMNGAGDAFVGGFLSAYAVGKDLRRCCETGHYTAQEVIQQDGCSFPEKPSFSP
Turning to B1, the Km in data set [10] amounted to 195 ± 24 µM.

Values taken from paper PMC6895180 (Nature Communications, 2019).
